Measurements from patent US20180280480A1, “COMPOSITIONS AND PEPTIDES HAVING DUAL GLP-1R AND GLP-2R AGONIST ACTIVITY” (priority 2014, published 2018).
Numbered stars: 1 amine (or outer) side, 2 acyl side, 3 side chain; on linkers, the order of the positions; unused ones are H or OH. Side chains are listed from the residue outwards. Ends that are not written are not given here. * marks the point of attachment. γGlu = O=C(O)[C@H](CCC(=O)[*:2])N[*:1]; Palmitoyl = CCCCCCCCCCCCCCCC(=O)*

T1: human GLP-2 receptor (human, UniProt O95838 1-553, limits assumed)
T1 sequence (looked up): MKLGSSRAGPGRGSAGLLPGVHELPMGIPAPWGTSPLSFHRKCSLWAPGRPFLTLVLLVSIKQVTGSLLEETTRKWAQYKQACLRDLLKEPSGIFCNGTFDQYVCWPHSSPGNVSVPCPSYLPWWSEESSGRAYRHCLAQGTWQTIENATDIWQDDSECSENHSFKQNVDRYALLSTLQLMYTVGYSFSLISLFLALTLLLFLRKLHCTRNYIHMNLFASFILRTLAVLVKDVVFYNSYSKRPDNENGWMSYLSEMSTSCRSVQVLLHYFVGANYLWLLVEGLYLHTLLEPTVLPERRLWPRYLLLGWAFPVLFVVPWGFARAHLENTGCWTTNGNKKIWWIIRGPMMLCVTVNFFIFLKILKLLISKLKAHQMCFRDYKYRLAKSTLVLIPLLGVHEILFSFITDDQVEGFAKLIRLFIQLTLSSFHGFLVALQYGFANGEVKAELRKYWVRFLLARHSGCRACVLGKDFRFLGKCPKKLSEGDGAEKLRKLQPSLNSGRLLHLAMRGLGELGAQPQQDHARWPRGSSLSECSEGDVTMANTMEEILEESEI


Experiments:
C57BL/6J mice [1] = assay: Acute food intake in C57BL/6J mice; type: in vivo; conditions: for Total food intake (g/animal): Day 0: 0-[…] (lights off), mean ± SEM
Experimental: The C57BL/6J mice arrived 7 days prior to the initiation of the study. During these days, animals were handled daily to accustom them to the experimental paradigm. At Day −1, the mice were randomised according to body weight to participate in one of following drug treatment groups (n=6-8 in each group): Group 1: vehicle. […] Group 3-5: SEQ ID NO 3; 3.0; 1.0; 0.3 mg/kg. Group 6-8: SEQ ID NO 4; 3.0; 1.0; 0.3 mg/kg. Group 9-11: SEQ ID NO 5; 3.0; 1.0; 0.3 mg/kg. Group 12-14: SEQ ID NO 6; 3.0; 1.0; 0.3 mg/kg. Group 15-17: SEQ ID NO 7; 3.0; 1.0; 0.3 mg/kg. Three days prior to initiation of dosing, all animals were handled daily and accustomed to the experimental conditions by subcutaneous mock injections (i.e. nipping the skin of the back). Baseline food intake was monitored four days prior to the study. Mice were randomized according to body weight on Day −1. Animals were subjected to two separate injections. First acute dose was administered prior to lights out at Day 0 and food intake was monitored 24 hours post dosing. On Day 3, mice were re-randomised into new treatment groups and dosed prior to lights out. Food intake was monitored 24 hours post dosing. Body weight was measured daily from Day −5 and throughout the study. The study was terminated on Day 5. […] Dosing took place prior to lights out in the afternoon (between 13.30 and 14.00). Doses were administered subcutaneously (dose volume 5 ml/kg). Food intake data was collected using the HM-2 system, an online computerized feeding system using digital weighing cells. Food intake and body weight were measured from Day −7 and throughout the study. […]

C57BL/6J mice [2] = assay: GLP1R-GLP2R dual agonist compound study: cumulative food intake; type: in vivo
Source text: Forty (40, n=10, 4 groups) male C57BL/6J mice obtained from Taconic, Denmark, were used. At the time of the experiment, the mice had reached an age of 9-10 weeks. The mice were acclimatized for one week in their new environment and offered regular chow diet (Altromin 1324, Brogaarden A/S, Denmark) and domestic quality tap water. Animals were housed two per cage during the study, in a light-, temperature-, and humidity-controlled room (12-hour light: 12-hour dark cycle, lights on/off at 4 AM/4 PM hour; 22±1° C.; 50±10% relative humidity). […] Animals were uniquely identified with implantable microchips (Pet ID Microchip, E-vet) in all mice upon arrival. Animals were identified using the WS-2 weight station (MBrose ApS, Faaborg, Denmark) connected to a laptop running the HM02Lab software (Ellegaard Systems, Faaborg, Denmark). The HM02Lab software matches the body weight with ID and calculates the dose directly based on the body weight. All mice were handled for 3 days prior to the experiment to acclimatize the animals to handling and injections.

C57BL/6J mice [3] = assay: GLP1R-GLP2R dual agonist compound study: oral glucose tolerance test; type: in vivo
Experimental: On day 7, an oral glucose tolerance test (OGTT) was performed. Animals were mildly fasted as all food was removed 4 hours prior to the oral glucose load. Vehicle (SC) and compounds were administered subcutaneously (SC) 2 hours prior to the OGTT. At t=0 mice received an oral glucose load (2 g/kg; 4 ml/kg; 500 mg/ml, Fresenius Kabi, Sweden). Glucose was given as gavage via a gastrically-placed tube connected to a syringe ensuring accurate dosing. Blood glucose was measured from tail vein blood before glucose (at t=−120 and 0 min, baseline) and after glucose administration at t=15, 30, 60 and 120 min. Blood samples (tail vein) was collected into 10 μl heparinized glass capillary tubes and immediately suspended in buffer (0.5 ml of glucose/lactate system solution (EKF-diagnostics, Germany) and analyzed for glucose on the test day using a BIOSEN c-Line glucose meter (EKF-diagnostics, Germany) according to manufacturer's instructions. Results from the OGTT are listed below in Table 11.

C57BL/6J mice [4] = assay: GLP1R-GLP2R dual agonist compound study: gut wet weight; type: in vivo
Source text: On study day 8, the mice were terminated and the GI tract was removed for determination of the gut wet weight. The gut wet weight results are listed below in Table 12.

human GLP-1 receptor = human GLP-1 receptor (human, UniProt P43220 24-463, limits assumed); assay: cell-based or functional assay
human GLP-2 receptor = target: T1, human GLP-2 receptor; assay: cell-based or functional assay

Molecule	Total food intake (g/animal) (C57BL/6J mice [1]; single SC dose 0.3 mg/kg)	Total food intake (g/animal) (C57BL/6J mice [1]; single SC dose 1 mg/kg)	Total food intake (g/animal) (C57BL/6J mice [1]; single SC dose 3 mg/kg)	GLP-1R, EC50 (human GLP-1 receptor)	GLP-2R, EC50 (human GLP-2 receptor)	other results
HGDGSFTSELSTYLDNLAARDFINWLIQTKITD-NH2 (C-terminus assumed) [SEQ ID NO 7, R^1-HGDGSFTSELSTYLDNLAARDFINWLIQTKITDR^2]	1.05 ± 0.41 g/animal	0.47 ± 0.08 g/animal	0.28 ± 0.12 g/animal			food intake after […] compared to vehicle (C57BL/6J mice [1]; single dose 1-3 mg/kg): significantly reduced food intake
R^1-HGDGSFTDELSTYLDNLAARDFIAWLIQTKITDR^2 [SEQ ID NO 5]	0.69 ± 0.19 g/animal	0.83 ± 0.18 g/animal	0.26 ± 0.08 g/animal			
R^1-HGDGSFTDELSTYLDALAARDFIAWLIQTKR^2 [SEQ ID NO 3]	0.76 ± 0.37 g/animal	0.66 ± 0.15 g/animal	0.30 ± 0.08 g/animal			Cumulative food intake (C57BL/6J mice [2]; Day 0-7, 3.0 mg/kg BID SC, mean ± S.E.M.): 26.03 ± 2.49 g; cumulative food intake compared to vehicle and teduglutide (C57BL/6J mice [2]; dosed twice daily for 7 days): considerably reduced cumulative food intake; Oral glucose tolerance test AUC, 0-120 min (C57BL/6J mice [3]; Day 7, 3.0 mg/kg BID SC, glucose 2 g/kg oral, mean ± S.E.M.): 503 ± 97 mmol·min/L; blood glucose compared to vehicle and teduglutide (C57BL/6J mice [3]; dosed twice daily for 7 days): significantly reduced fasting blood glucose; Gut wet weight (C57BL/6J mice [4]; Day 8, 3.0 mg/kg BID SC, mean ± S.E.M.): 3.3 ± 0.2 g; gut wet weight compared to vehicle and teduglutide (C57BL/6J mice [4]; dosed twice daily for 8 days): significantly increased the gut wet weight
R^1-HGDGSFTSELSTYLDALAARDFINWLIQTKR^2 [SEQ ID NO 4]	0.93 ± 0.06 g/animal	0.79 ± 0.15 g/animal	0.25 ± 0.08 g/animal			
HGDGSFTSELSTYLDAK([γGlu-Palmitoyl])AARDFIAWLIQTKITD [SEQ ID NO 25]				0.319 nM	1.93 nM	
HGDGSFTSELSTYLDALAAK([γGlu-Palmitoyl])DFIAWLIQTKITD [SEQ ID NO 26]				0.658 nM	> 100 nM	
HGDGSFK([γGlu-Palmitoyl])SELSTYLDALAARDFIAWLIQTKITD [SEQ ID NO 19]				> 10 nM	> 100 nM	
HGDGSFTSELSTYLDK([γGlu-Palmitoyl])LAARDFIAWLIQTKITD [SEQ ID NO 24]				0.338 nM	5.6 nM	
HGDGSFTSELSK([γGlu-Palmitoyl])YLDALAARDFIAWLIQTKITD [SEQ ID NO 22]				0.543 nM	6.61 nM	
HGDGSFTSELSTYK([γGlu-Palmitoyl])DALAARDFIAWLIQTKITD [SEQ ID NO 23]				0.169 nM	1.06 nM	
HGDGSFTSELK([γGlu-Palmitoyl])TYLDALAARDFIAWLIQTKITD [SEQ ID NO 21]				> 10 nM	4.25 nM	
